Data published in patent US20060211724A1, “Hiv integrase inhibitors” (priority 2003, published 2006).

Each compound was assayed against T1, Recombinant His-tagged HIV-1 integrase (Human immunodeficiency virus type 1 group M subtype B, UniProt P12497, C1427S/F1332K) (assay: Enzymatic integrase assay (oligonucleotide-based DNA strand transfer, ELISA)). Conditions: not given.
T1 construct: Recombinant His-tagged HIV-1 integrase; His; made in house; host or cells: E. coli BL21(DE3)
Assay type: biochemical
Protocol: Enzymatic Integrase Assay
The activity of HIV-integrase was determined using an oligonucleotide-based assay in which the DNA strand transfer by preformed complexes of integrase and processed DNA was measured by means of an enzyme-linked immunosorbent assay (ELISA) in microtiter plate format. Recombinant His-tagged HIV-1 integrase was produced in the E. coli strain BL21(DE3) from the plasmid pINSD.His.sol (available from NTH) after induction with isopropyl-β-D-thiogalactopyranoside (IPTG) according to described procedures (cfr. ref. Jenkins et al., “A soluble active mutant of HIV-1 integrase”, J. Biol. Chem. 271 ([…]), 7712-7718). HPLC-purified oligodeoxynucleotides were obtained from Proligo, and used for preparation of the viral DNA substrate and target DNA.
INb-1C is 5′-biotinylated, INT5 and INT6 are at the 3′-end labeled with FITC. INb-1C and IN-1NC correspond to the U5 end of the HIV-1 LTR. The DNA substrate for the integrase reactions was made by annealing INb-1C and IN-1NC. An equimolar mixture of INb-1C and IN-1NC was heated shortly at 95° C. in the presence of 100 mM NaCl and allowed to cool slowly to room temperature. In the same way, INT5 and INT6 were annealed to produce a target DNA molecule.
The integration strand transfer reactions were performed in the following way:
20 nM biotinylated DNA substrate INb-1C/IN-1NC was pre-incubated with 300 nM HIV-integrase at 37° C. for 5 min, to allow the cleavage reaction to occur. The candidate compounds and 50 nM target DNA INT5/INT6 were added to the reaction mix containing 20 mM Hepes pH 7.5, 25 mM NaCl, 5 mM MnCl2, 2 mM DTT, and 50 μg/ml BSA, and incubated for 2 h at 37° C. The reaction mix was transferred to streptavidin-coated plates (Exiqon), which were prewashed (three times) with 5×SSCT, and incubated for 1 h at room temperature to allow capture of the biotinylated viral DNA/target DNA complex. Plates were washed three times with 2×SSCT buffer, and anti-FITC POD-coupled antibody (Roche) was added and incubated for 1 h at room temperature to detect integrated FITC-labeled target DNA. After a final washing step with PBST (5 times), BM chemiluminescent POD-substrate (Roche) was added, and luminescence was read out.
The table below list the pIC50 values for those compounds tested in the enzymatic integrase assay. The pIC50 is expressed in Molar units and is the value according to the following formula: pIC50=−log IC50
wherein the IC50 value is the drug concentration at which 50% of the enzyme or viral activity is inhibited.
Cc1ccc(CN2C(=O)c3c(c(O)c4nccnc4c3O)C2=O)cc1 [Compound 3, 5,9-Dihydroxy-7-(4-methyl-benzyl)-pyrrolo[3,4-g]quinoxaline-6,8-dione] showed an IC50 of 1580 nM.
For O=C1c2c(c(O)c3nccnc3c2O)C(=O)N1Cc1ccc(Br)cc1 [Compound 4, 7-(4-Bromo-benzyl)-5,9-dihydroxy-pyrrolo[3,4-g]quinoxaline-6,8-dione], the IC50 was 219 nM.
Work on O=C1c2c(c(O)c3ncccc3c2O)C(=O)N1Cc1ccc2c(c1)OCO2 [Compound 5, 7-Benzo[1,3]dioxol-5-ylmethyl-5,9-dihydroxy-pyrrolo[3,4-g]quinoline-6,8-dione] yielded an IC50 of 5620 nM.
Compound O=C1c2c(c(O)c3nccnc3c2O)C(=O)N1Cc1ccc(Oc2ccccc2)cc1 [Compound 7, 5,9-Dihydroxy-7-(4-phenoxy-benzyl)-pyrrolo[3,4-g]quinoxaline-6,8-dione] has an IC50 of 4900 nM.
For Cc1ccc2c(O)c3c(c(O)c2n1)C(=O)N(C(C)c1ccccc1)C3=O (centres unmarked) [Compound 8, 5,9-Dihydroxy-2-methyl-7-(1-phenyl-ethyl)-pyrrolo[3,4-g]quinoline-6,8-dione], the IC50 was 10700 nM.
With O=C1c2c(c(O)c3nccnc3c2O)C(=O)N1c1ccc2c(c1)OCO2 [Compound 10, 7-Benzo[1,3]dioxol-5-yl-5,9-dihydroxy-pyrrolo[3,4-g]quinoxaline-6,8-dione] the IC50 was 10000 nM.
For O=C1c2c(c(O)c3ccccc3c2O)C(=O)N1Cc1ccc(F)cc1 [Compound 11, 2-(4-Fluoro-benzyl)-4,9-dihydroxy-benzo[f]isoindole-1,3-dione], the IC50 was over 100000 nM.
O=C1c2c(c(O)c3ccccc3c2O)C(=O)N1CCc1ccccc1 [Compound 12, 4,9-Dihydroxy-2-phenethyl-benzo[f]isoindole-1,3-dione] showed an IC50 of over 100000 nM.
For O=C1c2c(c(O)c3c(F)cccc3c2O)C(=O)N1Cc1ccc(F)cc1 [Compound 13, 5-Fluoro-2-(4-fluoro-benzyl)-4,9-dihydroxy-benzo[f]isoindole-1,3-dione], the IC50 was over 100000 nM.
Work on O=C1c2c(c(O)c3nccnc3c2O)C(=O)N1CCc1ccccc1 [Compound 14, 5,9-Dihydroxy-7-phenethyl-pyrrolo[3,4-g]quinoxaline-6,8-dione] yielded an IC50 of 2040 nM.
For C[C@H](c1ccccc1)N1C(=O)c2c(c(O)c3nccnc3c2O)C1=O [Compound 15, 5,9-Dihydroxy-7-(1-(R)-phenyl-ethyl)-pyrrolo[3,4-g]quinoxaline-6,8-dione], the IC50 was 1050 nM.
O=C1c2c(c(O)c3nccnc3c2O)C(=O)N1Cc1cccc(F)c1 [Compound 16, 7-(3-Fluoro-benzyl)-5,9-dihydroxy-pyrrolo[3,4-g]quinoxaline-6,8-dione] showed an IC50 of 562 nM.
Work on COc1ccc(CN2C(=O)c3c(c(O)c4nccnc4c3O)C2=O)cc1 [Compound 17, 5,9-Dihydroxy-7-(4-methoxy-benzyl)-pyrrolo[3,4-g]quinoxaline-6,8-dione] yielded an IC50 of 562 nM.
In the case of O=C1c2c(c(O)c3nccnc3c2O)C(=O)N1Cc1cccc(CN2C(=O)c3c(c(O)c4nccnc4c3O)C2=O)c1 [Compound 18, 7-[3-(5,9-Dihydroxy-6,8-dioxo-6,8-dihydro-pyrrolo[3,4-g]quinoxalin-7-ylmethyl)-benzyl]-5,9-dihydroxy-pyrrolo[3,4-g]quinoxaline-6,8-dione], the IC50 is reported as 7590 nM.
For Cc1ccc2c(O)c3c(c(O)c2n1)C(=O)N(CCc1ccccc1)C3=O [Compound 19, 5,9-Dihydroxy-2-methyl-7-phenethyl-pyrrolo[3,4-g]quinoline-6,8-dione], the IC50 was 4170 nM.
In the case of Cc1ccc2c(O)c3c(c(O)c2n1)C(=O)N(Cc1ccc2c(c1)OCO2)C3=O [Compound 20, 7-Benzo[1,3]dioxol-5-ylmethyl-5,9-dihydroxy-2-methyl-pyrrolo[3,4-g]quinoline-6,8-dione], the IC50 is reported as 2140 nM.
For Cc1ccc2c(O)c3c(c(O)c2n1)C(=O)N(Cc1cccc(F)c1)C3=O [Compound 21, 7-(3-Fluoro-benzyl)-5,9-dihydroxy-2-methyl-pyrrolo[3,4-g]quinoline-6,8-dione], the IC50 was 871 nM.
With Cc1ccc2c(O)c3c(c(O)c2n1)C(=O)N(Cc1ccc(F)cc1)C3=O [Compound 22, 7-(4-Fluoro-benzyl)-5,9-dihydroxy-2-methyl-pyrrolo[3,4-g]quinoline-6,8-dione] the IC50 was 398 nM.
With COc1ccc(CN2C(=O)c3c(c(O)c4nc(C)ccc4c3O)C2=O)cc1 [Compound 23, 5,9-Dihydroxy-7-(4-methoxy-benzyl)-2-methyl-pyrrolo[3,4-g]quinoline-6,8-dione] the IC50 was 1480 nM.
Work on O=C1c2c(c(O)c3ncccc3c2O)C(=O)N1CCc1ccccc1 [Compound 24, 5,9-Dihydroxy-7-phenethyl-pyrrolo[3,4-g]quinoline-6,8-dione] yielded an IC50 of 2510 nM.
With CC(c1ccccc1)N1C(=O)c2c(c(O)c3nccnc3c2O)C1=O (centres unmarked) [Compound 25, 5,9-Dihydroxy-7-(1-phenyl-ethyl)-pyrrolo[3,4-g]quinoxaline-6,8-dione] the IC50 was 2040 nM.
O=C1c2c(c(O)c3nccnc3c2O)C(=O)N1CC1CCCCC1 [Compound 26, 7-Cyclohexylmethyl-5,9-Dihydroxy-pyrrolo[3,4-g]quinoxaline-6,8-dione] was tested, and the IC50 was 2190 nM.
In the case of O=C1c2c(c(O)c3nccnc3c2O)C(=O)N1Cc1cccc2ccccc12 [Compound 27, 5,9-Dihydroxy-7-naphthalen-1-ylmethyl-pyrrolo[3,4-g]quinoxaline-6,8-dione], the IC50 is reported as 1410 nM.
Compound O=C1c2c(c(O)c3nccnc3c2O)C(=O)N1CCN1CCOCC1 [Compound 28, 5,9-Dihydroxy-7-(2-morpholine-4-yl-ethyl)-pyrrolo[3,4-g]quinoxaline-6,8-dione] has an IC50 of 66100 nM.
Compound O=C1c2c(c(O)c3nccnc3c2O)C(=O)N1Cc1ccncc1 [Compound 29, 5,9-Dihydroxy-7-pyridin-4-ylmethyl-pyrrolo[3,4-g]quinoxaline-6,8-dione] has an IC50 of 6760 nM.
In the case of Cc1ccc2c(O)c3c(c(O)c2n1)C(=O)N(c1ccccc1)C3=O [Compound 30, 5,9-Dihydroxy-2-methyl-7-phenyl-pyrrolo[3,4-g]quinoline-6,8-dione], the IC50 is reported as 24000 nM.
O=C1c2c(c(OCc3ccccc3)c3nccnc3c2O)C(=O)N1Cc1ccc2c(c1)OCO2 [Compound 31, 7-Benzo[1,3]dioxol-5-ylmethyl-5-benzyloxy-9-hydroxy-pyrrolo[3,4-g]quinoxaline-6,8-dione] was tested, and the IC50 was over 100000 nM.
O=C1c2c(c(O)c3nccnc3c2O)C(=O)N1C1CCCC1 [Compound 32, 7-Cyclopentyl-5,9-dihydroxy-pyrrolo[3,4-g]quinoxaline-6,8-dione] was tested, and the IC50 was 10500 nM.
O=C1c2c(c(O)c3nccnc3c2O)C(=O)N1c1ccc(F)cc1 [Compound 33, 7-(4-Fluoro-phenyl)-5,9-dihydroxy-pyrrolo[3,4-g]quinoxaline-6,8-dione] was tested, and the IC50 was 21900 nM.
Compound CS(=O)(=O)c1ccc(CN2C(=O)c3c(c(O)c4nccnc4c3O)C2=O)cc1 [Compound 34, 5,9-Dihydroxy-7-(4-methanesulfonyl-benzyl)-pyrrolo[3,4-g]quinoxaline-6,8-dione] has an IC50 of 8710 nM.
Work on O=C1c2c(c(O)c3nccnc3c2O)C(=O)N1c1ccccc1Br [Compound 35, 7-(2-Bromo-phenyl)-5,9-dihydroxy-pyrrolo[3,4-g]quinoxaline-6,8-dione] yielded an IC50 of 1820 nM.

Same assay, conditions: pIC50=−log IC50, expressed in Molar units; strand transfer, 5 mM MnCl2, 2 h at 37° C.
CCOC(=O)C(=O)Oc1c2c(c(O)c3nccnc13)CN(Cc1ccc3c(c1)OCO3)C2 [Compound 6, Oxalic acid 7-benzo[1,3]dioxol-5-ylmethyl-9-hydroxy-6,8-dihydro-6H-pyrrolo[3,4-g]quinoxalin-5-yl ester ethyl ester] gave a pIC50 of 5.50.
